Assay results: the supplement of paper PMC10307832

Columns and labels:
Assay in all cases: relative viability (nuclei count vs DMSO), 5 days (fraction); higher = more cells survive
AGI-6780 + OSI-027 = compound: O=C(Nc1cccc(C(F)(F)F)c1)Nc1cc(S(=O)(=O)NC2CC2)ccc1-c1ccsc1 [AGI-6780] + COc1cccc2cc(-c3nc([C@H]4CC[C@H](C(=O)O)CC4)n4ncnc(N)c34)[nH]c12 [OSI-027] (partner 0.5 µM)
Outline: (§1)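 Relative viability equals treated-well nuclei counts divided by vehicle-well nuclei counts. Counts came from 4× images of lung cancer cell lines grown in 1536-well plates for 5 days after pin-tool dosing on the day after seeding. Dosing used one drug alone or a fixed anchor-drug dose plus five library-drug doses (not always all listed) in √10 steps, and values are medians of duplicate plates.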

AGI-6780 + Trametinib = compound: O=C(Nc1cccc(C(F)(F)F)c1)Nc1cc(S(=O)(=O)NC2CC2)ccc1-c1ccsc1 [AGI-6780] + CC(=O)Nc1cccc(-n2c(=O)n(C3CC3)c(=O)c3c(Nc4ccc(I)cc4F)n(C)c(=O)c(C)c32)c1 [Trametinib] (partner 0.02 µM)
Outline: as §1

AGI-6780 + Phenformin = compound: O=C(Nc1cccc(C(F)(F)F)c1)Nc1cc(S(=O)(=O)NC2CC2)ccc1-c1ccsc1 [AGI-6780] + N=C(N)NC(=N)NCCc1ccccc1 [Phenformin] (partner 250 µM)
Outline: as §1

AGI-6780 = compound: O=C(Nc1cccc(C(F)(F)F)c1)Nc1cc(S(=O)(=O)NC2CC2)ccc1-c1ccsc1 [AGI-6780]
Outline: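 Viability is treated-well nuclei as a fraction of vehicle-well nuclei, reported as the median across plates. Before counting, lung cancer cell lines were kept overnight at 37 °C in 1536-well plates, pinned with five √10-spaced library-drug doses on vehicle-anchored plates, and left 5 days without medium change, then fixed, permeabilised and Hoechst-stained in one step, imaged at 4× and counted by MetaXpress. A plate passed only if control CV was below 25% and at least one doubling occurred.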

| Cell Line | relative viability (AGI-6780 + OSI-027; first compound 0.08 µM) | relative viability (AGI-6780 + OSI-027; first compound 0.253 µM) | relative viability (AGI-6780 + OSI-027; first compound 0.8 µM) | relative viability (AGI-6780 + OSI-027; first compound 2.53 µM) | relative viability (AGI-6780 + OSI-027; first compound 8 µM) | relative viability (AGI-6780 + Trametinib; first compound 0.08 µM) | relative viability (AGI-6780 + Trametinib; first compound 0.253 µM) | relative viability (AGI-6780 + Trametinib; first compound 0.8 µM) | relative viability (AGI-6780 + Trametinib; first compound 2.53 µM) | relative viability (AGI-6780 + Trametinib; first compound 8 µM) | relative viability (AGI-6780 + Phenformin; first compound 0.08 µM) | relative viability (AGI-6780 + Phenformin; first compound 0.253 µM) | relative viability (AGI-6780 + Phenformin; first compound 0.8 µM) | relative viability (AGI-6780 + Phenformin; first compound 2.53 µM) | relative viability (AGI-6780 + Phenformin; first compound 8 µM) | relative viability (AGI-6780; 0.08 µM) | relative viability (AGI-6780; 0.253 µM) | relative viability (AGI-6780; 0.8 µM) | relative viability (AGI-6780; 2.53 µM) | relative viability (AGI-6780; 8 µM) |
| --- | --- | --- | --- | --- | --- | --- | --- | --- | --- | --- | --- | --- | --- | --- | --- | --- | --- | --- | --- | --- |
| NCI-H1437 | 0.851 | 0.86 | 0.859 | 0.898 | 0.927 | 0.537 | 0.548 | 0.512 | 0.406 | 0.522 | 0.337 | 0.382 | 0.298 | 0.327 | 0.343 | 0.943 | 1 | 1.04 | 1 | 0.997 |
| NCI-H1650 | 0.641 | 0.597 | 0.856 | 0.552 | 0.638 | 0.559 | 0.555 | 0.653 | 0.623 | 0.757 | 0.387 | 0.407 | 0.498 | 0.4 | 0.382 | 0.942 | 0.915 | 1.2 | 0.995 | 0.976 |
| NCI-H1651 | 0.659 | 0.684 | 0.731 | 0.691 | 0.661 | 0.816 | 0.82 | 0.833 | 0.73 | 0.839 | 0.331 | 0.362 | 0.394 | 0.335 | 0.37 | 1.03 | 1.04 | 0.957 | 0.921 | 1.02 |
| NCI-H1666 | 0.899 | 0.828 | 0.809 | 0.761 | 1.01 | 0.936 | 0.885 | 0.836 | 0.776 | 0.93 | 0.51 | 0.573 | 0.534 | 0.554 | 0.618 | 1 | 0.974 | 0.981 | 0.843 | 1.06 |
| NCI-H1734 | 0.588 | 0.665 | 0.621 | 0.442 | 0.573 | 0.74 | 0.646 | 0.63 | 0.474 | 0.758 | 0.395 | 0.427 | 0.45 | 0.305 | 0.377 | 0.945 | 1.07 | 1 | 0.692 | 1.06 |
| NCI-H1755 | 0.836 | 0.758 | 0.677 | 0.503 | 0.666 | 0.721 | 0.775 | 0.723 | 0.737 | 0.802 | 0.637 | 0.683 | 0.611 | 0.576 | 0.633 | 1.02 | 0.983 | 0.964 | 0.915 | 1 |
| NCI-H1792 |  | 0.71 | 0.704 | 0.663 | 0.643 | 0.532 | 0.332 | 0.611 |  | 0.483 | 0.159 | 0.279 | 0.195 | 0.241 | 0.345 | 0.856 | 1.22 | 0.946 | 0.727 | 0.986 |
| NCI-H1793 | 0.302 | 0.27 | 0.359 | 0.197 | 0.293 | 0.393 | 0.359 | 0.479 | 0.416 | 0.423 | 0.458 | 0.406 | 0.386 | 0.264 | 0.365 | 1.19 | 1.08 | 1.03 | 0.768 | 0.897 |
| NCI-H1915 | 0.678 | 0.663 | 0.594 | 0.465 | 0.623 | 0.314 | 0.304 | 0.298 | 0.246 | 0.274 | 0.37 | 0.371 | 0.369 | 0.374 | 0.376 | 1.02 | 0.995 | 1.01 | 0.994 | 1.05 |
| NCI-H1944 | 0.414 | 0.466 | 0.461 |  | 0.425 | 0.458 | 0.417 | 0.463 |  | 0.425 | 0.212 | 0.215 | 0.213 |  | 0.217 | 1.02 | 0.975 | 1.02 |  | 1.06 |
| NCI-H1975 | 0.813 | 0.751 | 0.767 |  | 0.67 | 0.369 | 0.348 | 0.29 | 0.207 | 0.322 | 0.437 | 0.427 | 0.41 |  | 0.395 | 0.94 | 1.08 | 0.918 | 0.873 | 0.921 |
| NCI-H1993 | 0.367 | 0.614 | 0.46 | 0.588 | 0.554 | 0.639 | 0.562 | 0.535 |  | 0.604 | 0.419 | 0.51 | 0.495 | 0.499 | 0.54 | 1.01 | 1.07 | 1.19 | 0.677 | 0.971 |
| NCI-H2009 | 0.667 | 0.7 | 0.575 | 0.668 | 0.696 | 0.264 | 0.272 | 0.243 | 0.202 | 0.225 | 0.432 | 0.426 | 0.496 | 0.518 | 0.47 | 0.968 | 1.03 | 0.94 | 1.1 | 1.05 |
| NCI-H2023 | 0.434 | 0.455 | 0.447 | 0.301 | 0.337 | 0.691 | 0.527 | 0.497 | 0.5 | 0.526 | 0.395 | 0.39 | 0.413 | 0.403 | 0.389 | 0.969 | 0.978 | 1.03 | 0.882 | 1.03 |
| NCI-H2085 | 0.77 | 0.825 | 0.805 | 0.513 | 0.89 | 0.651 | 0.581 | 0.526 | 0.666 | 0.735 | 0.728 | 0.836 | 0.736 | 0.716 | 0.707 | 1.02 | 1 | 1.05 | 1.07 | 0.993 |
| NCI-H2087 | 0.866 | 0.564 | 0.608 | 0.405 | 0.626 | 0.253 | 0.183 | 0.218 | 0.213 | 0.194 | 0.5 | 0.502 | 0.471 | 0.438 | 0.492 | 1.03 | 1.18 | 1.12 | 1.01 | 1.12 |
